Assay results from PubChem BioAssay AID330 (DTP/NCI, 2004).
“And” between values parts separate entries of the source, which are not always exact repeats. Equal values may be shown once. Toxic doses and inconclusive results are not listed. How the source made its calls: active means survival T/C of 150% or more; inactive means T/C below 125% in these data.

System: P388 leukemia ip, CD2F1 mice, survival T/C
Assay: NCI In Vivo Anticancer Drug Screen. Data for tumor model P388 Leukemia (intraperitoneal) in CD2F1 (CDF1) mice
Settings: endpoint: median survival time, higher = longer survival
Method in brief: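 Mice carrying the transplanted tumor received test compound or vehicle. Survival was recorded in each group, and the value is the treated-group measurement divided by that of the vehicle-treated control group.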

[1] = dose: 50.0 mg/kg/injection, schedule: Q01DX009 (ip), vehicle: saline with Tween-80
[2] = dose: 100.0 mg/kg/injection, schedule: Q01DX009 (ip), vehicle: saline with Tween-80
[3] = dose: 200.0 mg/kg/injection, schedule: Q01DX009 (ip), vehicle: saline with Tween-80
[4] = dose: 12.5 mg/kg/injection, schedule: Q01DX009 (ip), vehicle: saline with Tween-80
[5] = dose: 25.0 mg/kg/injection, schedule: Q01DX009 (ip), vehicle: saline with Tween-80
[6] = dose: 60.0 mg/kg/injection, schedule: Q01DX005 (ip), vehicle: saline with Tween-80
[7] = dose: 240.0 mg/kg/injection, schedule: Q01DX005 (ip), vehicle: saline with Tween-80
[8] = dose: 100.0 mg/kg/injection, schedule: Q04DX002 (ip), vehicle: saline with Tween-80
[9] = dose: 200.0 mg/kg/injection, schedule: Q04DX002 (ip), vehicle: saline with Tween-80
[10] = dose: 400.0 mg/kg/injection, schedule: Q04DX002 (ip), vehicle: saline with Tween-80
[11] = dose: 120.0 mg/kg/injection, schedule: Q01DX005 (ip), vehicle: saline with Tween-80
[12] = dose: 60.0 mg/kg/injection, schedule: Q01DX005 (ip), vehicle: Klucel (hydroxypropylcellulose) (HPC)
[13] = dose: 120.0 mg/kg/injection, schedule: Q01DX005 (ip), vehicle: Klucel (hydroxypropylcellulose) (HPC)

Measured: T/C

Cc1ccc2c(c1O)NC(O)c1cccn1C2=O (configuration not stated)
inactive: dose: 0.1 mg/kg/injection, schedule: Q01DX005 (ip), vehicle: water 99 % of control | dose: 0.2 mg/kg/injection, schedule: Q01DX005 (ip), vehicle: water 111 % of control | dose: 0.4 mg/kg/injection, schedule: Q01DX005 (ip), vehicle: water 100 % of control | dose: 0.8 mg/kg/injection, schedule: Q01DX005 (ip), vehicle: water 98 % of control | dose: 1.6 mg/kg/injection, schedule: Q01DX005 (ip), vehicle: water 96 % of control | dose: 5.0 mg/kg/injection, schedule: Q01DX005 (ip), vehicle: distilled water + Tween-80 92 % of control | dose: 10.0 mg/kg/injection, schedule: Q01DX005 (ip), vehicle: distilled water + Tween-80 98 % of control | dose: 20.0 mg/kg/injection, schedule: Q01DX005 (ip), vehicle: distilled water + Tween-80 91 % of control | dose: 80.0 mg/kg/injection, schedule: Q01DX005 (ip), vehicle: distilled water + Tween-80 86 % of control

C/C=C/C=C1\C=Cc2c(C(=O)OC)coc(=O)c21
inactive: dose: 19.5 mg/kg/injection, schedule: Q01DX005 (ip), vehicle: Klucel (hydroxypropylcellulose) (HPC) 107 % of control | dose: 39.0 mg/kg/injection, schedule: Q01DX005 (ip), vehicle: Klucel (hydroxypropylcellulose) (HPC) 110 % of control | dose: 78.0 mg/kg/injection, schedule: Q01DX005 (ip), vehicle: Klucel (hydroxypropylcellulose) (HPC) 108 % of control

Cc1ccn2c([N+](=O)[O-])cnc2c1
inactive: [1] 107 % of control | [2] 104 % of control | [3] 102 % of control

O=C(c1ccc([N+](=O)[O-])cc1)C(Br)C(Br)c1ccncc1 (configuration not stated)
inactive: dose: 25.0 mg/kg/injection, schedule: Q01DX009 (ip), vehicle: other 110 % of control | dose: 50.0 mg/kg/injection, schedule: Q01DX009 (ip), vehicle: other 104 % of control | dose: 100.0 mg/kg/injection, schedule: Q01DX009 (ip), vehicle: other 106 % of control | dose: 200.0 mg/kg/injection, schedule: Q01DX009 (ip), vehicle: other 103 % of control

O=[N+]([O-])c1ccc(O)c(O)c1
inactive: dose: 12.5 mg/kg/injection, schedule: Q01DX009 (ip), vehicle: saline 100 % of control | dose: 25.0 mg/kg/injection, schedule: Q01DX009 (ip), vehicle: saline 108 % of control | dose: 50.0 mg/kg/injection, schedule: Q01DX009 (ip), vehicle: saline 98 % of control

COc1cc([C@H]2c3cc(O)c(OC)cc3C[C@]3(O)[C@@H]2CO[C@@H]3O)ccc1O
inactive: dose: 4.75 mg/kg/injection, schedule: Q01DX005 (ip), vehicle: saline with Tween-80 104 % of control | dose: 9.5 mg/kg/injection, schedule: Q01DX005 (ip), vehicle: saline with Tween-80 95 % of control | dose: 19.0 mg/kg/injection, schedule: Q01DX005 (ip), vehicle: saline with Tween-80 96 % of control | dose: 38.0 mg/kg/injection, schedule: Q01DX005 (ip), vehicle: saline with Tween-80 99 % of control

Oc1ccccc1-c1cc(-c2ccccc2)nc(NCCCCNc2nc(-c3ccccc3)cc(-c3ccccc3O)n2)n1
inactive: dose: 12.5 mg/kg/injection, schedule: Q01DX005 (ip), vehicle: Klucel (hydroxypropylcellulose) (HPC) 97 % of control | dose: 25.0 mg/kg/injection, schedule: Q01DX005 (ip), vehicle: Klucel (hydroxypropylcellulose) (HPC) 97 % of control | dose: 50.0 mg/kg/injection, schedule: Q01DX005 (ip), vehicle: Klucel (hydroxypropylcellulose) (HPC) 94 % of control | dose: 100.0 mg/kg/injection, schedule: Q01DX005 (ip), vehicle: Klucel (hydroxypropylcellulose) (HPC) 88 % of control

CSc1ncnc2c1cnn2C1OC(CO)C(O)C1O (configuration not stated)
inactive: dose: 6.25 mg/kg/injection, schedule: Q01DX009 (ip), vehicle: saline with Tween-80 104 % of control | [4] 98 % of control | [5] 116 % of control | [1] 100 % of control

O=c1c(=NO)c(=O)c2ccccc12
inactive: dose: 100.0 mg/kg/injection, schedule: Q01DX001 (ip), vehicle: saline with Tween-80 103 % of control | dose: 200.0 mg/kg/injection, schedule: Q01DX001 (ip), vehicle: saline with Tween-80 110 % of control

O=[N+]([O-])/N=c1/nc2scc(-c3ccc([N+](=O)[O-])cc3)n2s1
inactive: dose: 1.87 mg/kg/injection, schedule: Q01DX005 (ip), vehicle: saline with Tween-80 99 % of control | dose: 3.75 mg/kg/injection, schedule: Q01DX005 (ip), vehicle: saline with Tween-80 107 % of control | dose: 7.5 mg/kg/injection, schedule: Q01DX005 (ip), vehicle: saline with Tween-80 99 % of control and 97 % of control | dose: 30.0 mg/kg/injection, schedule: Q01DX005 (ip), vehicle: saline with Tween-80 91 % of control | [6] 106 % of control | [7] 87 % of control

COc1ccc(S(=O)(=O)N/N=C/c2cc([N+](=O)[O-])ccc2O)cc1
inactive: dose: 50.0 mg/kg/injection, schedule: Q01DX005 (ip), vehicle: saline with Tween-80 101 % of control | dose: 100.0 mg/kg/injection, schedule: Q01DX005 (ip), vehicle: saline with Tween-80 107 % of control | dose: 200.0 mg/kg/injection, schedule: Q01DX005 (ip), vehicle: saline with Tween-80 119 % of control

CC1CC(C)(C)N=C(C(C)C)O1 (configuration not stated)
inactive: dose: 25.0 mg/kg/injection, schedule: Q04DX003 (ip), vehicle: saline with Tween-80 109 % of control | dose: 50.0 mg/kg/injection, schedule: Q04DX003 (ip), vehicle: saline with Tween-80 100 % of control | dose: 100.0 mg/kg/injection, schedule: Q04DX003 (ip), vehicle: saline with Tween-80 100 % of control

CCOc1c(OC)cc(-c2n[nH]c(=S)o2)cc1OC
inactive: dose: 100.0 mg/kg/injection, schedule: Q04DX003 (ip), vehicle: Klucel (hydroxypropylcellulose) (HPC) 101 % of control | dose: 200.0 mg/kg/injection, schedule: Q04DX003 (ip), vehicle: Klucel (hydroxypropylcellulose) (HPC) 95 % of control | dose: 400.0 mg/kg/injection, schedule: Q04DX003 (ip), vehicle: Klucel (hydroxypropylcellulose) (HPC) 100 % of control

CCCCCNCC(=O)ON1CCCC1C(=O)NC(Cc1ccccc1)C(=O)NC(CC(C)C)C(=O)O (configuration not stated)
inactive: [8] 104 % of control | [9] 101 % of control | [10] 101 % of control

Fc1ccc(NC(=S)SCc2ccc(Cl)c(Cl)c2)cc1F
inactive: dose: 12.5 mg/kg/injection, schedule: Q01DX009 (ip), vehicle: Klucel (hydroxypropylcellulose) (HPC) 124 % of control | dose: 100.0 mg/kg/injection, schedule: Q01DX009 (ip), vehicle: Klucel (hydroxypropylcellulose) (HPC) 116 % of control and 96 % of control

CC(C(=O)O)[As](=O)(O)O (configuration not stated)
inactive: dose: 100.0 mg/kg/injection, schedule: Q04DX003 (ip), vehicle: saline 102 % of control | dose: 200.0 mg/kg/injection, schedule: Q04DX003 (ip), vehicle: saline 99 % of control | dose: 400.0 mg/kg/injection, schedule: Q04DX003 (ip), vehicle: saline 98 % of control

CC(=O)Nc1ccc(/C=N/NC(=O)CNC(=O)c2ccccc2)cc1
inactive: [6] 95 % of control | [11] 86 % of control

Clc1ccc(C2=NNC(c3ccc(Cl)cc3)=NN2)cc1
inactive: [12] 103 % of control | [13] 102 % of control | dose: 240.0 mg/kg/injection, schedule: Q01DX005 (ip), vehicle: Klucel (hydroxypropylcellulose) (HPC) 98 % of control

CC(C)NCC(O)c1ccc(O)c(NC=O)c1 (configuration not stated)
inactive: [1] 102 % of control | [2] 104 % of control | [3] 100 % of control

C/C(=N/NC(N)=O)c1cn[nH]c1C
inactive: [12] 117 % of control | [13] 124 % of control

O=C(OCCCCI)c1ccccc1
inactive: dose: 25.0 mg/kg/injection, schedule: Q01DX009 (ip), vehicle: saline + Tween-80 + alcohol 105 % of control | dose: 50.0 mg/kg/injection, schedule: Q01DX009 (ip), vehicle: saline + Tween-80 + alcohol 103 % of control | dose: 100.0 mg/kg/injection, schedule: Q01DX009 (ip), vehicle: saline + Tween-80 + alcohol 104 % of control | dose: 2000.0 mg/kg/injection, schedule: Q01DX009 (ip), vehicle: saline + Tween-80 + alcohol 114 % of control

O=c1ccc2nc3ccccc3sc-2c1
inactive: [4] 90 % of control | [5] 104 % of control | [1] 109 % of control

O=C(O)/C(=C\c1ccccn1)c1ccccc1
inactive: [8] 105 % of control | [9] 105 % of control | [10] 105 % of control

NC(N)=NS(=O)(=O)c1ccc(N=Cc2c3ccccc3nc3cc(Cl)ccc23)cc1
inactive: [6] 91 % of control | [11] 91 % of control | [7] 91 % of control
